Data from US10064871B2, “Methods of treating skin disorders” (Biomimetix JV, LLC, priority 2014, dated 2018).

Assays:
[1] = system: psoriatic involvement of the scalp; assay: Topical treatment of psoriatic involvement of the scalp of one subject; type: in vivo, human
Source text: A second subject with psoriatic involvement of the scalp of moderate severity was topically treated with MnTnBuOE-2-PyP^5+0.1% in LIPODERM® cream base twice daily for 3 weeks.

plaque-forming psoriasis = assay: Topical treatment of plaque-forming psoriasis on the legs of one subject; type: in vivo, human
Procedure: The therapeutic efficacy of MnTnBuOE-2-PyP^5+ when topically delivered was evaluated in a person with large areas of moderately severe plaque-forming psoriasis on upper and lower portions of both legs, with each involved area being approximately 10-20 cm in diameter. MnTnBuOE-2-PyP^5+ was formulated in LIPODERM® topical compounding cream base (available from the Professional Compounding Centers of America (PCCA)). at 0.01% and 0.1% concentrations producing a light brown cream which was applied b.i.d. to lesions on one extremity.

[2] = 0.01% and 0.1% in LIPODERM cream base, topical b.i.d., within 5 days

For “Manganese ortho tetrakis(N-n-butoxyethylpyridinium-2-yl)porphyrin [MnTnBuOE-2-PyP^5+]”, the “return of the psoriatic reaction” value ([1]; 30 days after treatment stopped, 0.1% in LIPODERM cream base twice daily for 3 weeks) was “No return of the psoriatic reaction was observed”, the “psoriatic scalp reaction after treatment” value ([1]; person, moderate severity, 0.1% in LIPODERM cream base, topical twice daily for 3 weeks) was “Complete resolution” and the “time to marked improvement” value (plaque-forming psoriasis; 0.01% and 0.1% in LIPODERM cream base, topical b.i.d.) was ≤ 5 days. The “area of remaining mild psoriatic reaction” value (plaque-forming psoriasis; [2]) was “decrease in the area of remaining mild psoriatic reaction”, the clinical irritation (plaque-forming psoriasis; [2]) was “marked decrease in clinical irritation” and the inflammation of lesions (plaque-forming psoriasis; [2]) was “decreased inflammation”. The “efficacy of 0.01% compared with 0.1% cream” value (plaque-forming psoriasis; lesions treated with 0.01% and 0.1% in LIPODERM cream base) was “Equivalent efficacy” and the “clinical improvement of psoriatic lesions” value (plaque-forming psoriasis; person, moderately severe plaque psoriasis of legs, 0.01% and 0.1% in LIPODERM cream base, topical b.i.d.) was “Marked improvement”.
